{"source": "patent US20050100983A1", "about": "“Cell-free methods for identifying compounds that affect toll-like receptor 9 (TLR9) signaling” (Coley Pharmaceutical GmbH, priority 2003, published 2005)", "molecular_target": "T1, mTLR9ect-mut (D535→A and Y537→A) (Mus musculus, UniProt Q9EQU3, D535A/Y537A)", "T1 construct": "mTLR9ect-mut (see below) (aa 1-816); made in house", "T1 sequence (Q9EQU3 26-816 D535A/Y537A)": "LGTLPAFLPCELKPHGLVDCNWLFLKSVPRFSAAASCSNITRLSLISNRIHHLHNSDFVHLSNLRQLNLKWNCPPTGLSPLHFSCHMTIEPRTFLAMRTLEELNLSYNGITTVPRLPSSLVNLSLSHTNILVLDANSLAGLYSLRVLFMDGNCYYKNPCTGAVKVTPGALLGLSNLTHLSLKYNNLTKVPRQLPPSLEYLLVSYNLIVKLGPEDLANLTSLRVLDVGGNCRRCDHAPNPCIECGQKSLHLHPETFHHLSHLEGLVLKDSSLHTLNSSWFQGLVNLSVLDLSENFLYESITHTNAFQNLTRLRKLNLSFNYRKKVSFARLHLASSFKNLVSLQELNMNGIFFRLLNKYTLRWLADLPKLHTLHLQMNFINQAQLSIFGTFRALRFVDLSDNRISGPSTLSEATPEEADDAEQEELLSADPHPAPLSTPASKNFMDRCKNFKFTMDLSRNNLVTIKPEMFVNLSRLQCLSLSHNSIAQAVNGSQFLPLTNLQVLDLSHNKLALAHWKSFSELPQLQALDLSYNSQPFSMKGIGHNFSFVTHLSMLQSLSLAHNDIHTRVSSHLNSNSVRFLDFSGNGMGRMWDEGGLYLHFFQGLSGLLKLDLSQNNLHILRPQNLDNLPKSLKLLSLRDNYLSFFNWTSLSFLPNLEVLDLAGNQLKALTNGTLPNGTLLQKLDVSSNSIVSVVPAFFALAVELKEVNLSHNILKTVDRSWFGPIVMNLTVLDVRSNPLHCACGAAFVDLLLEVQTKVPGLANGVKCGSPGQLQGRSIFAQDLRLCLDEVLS", "assay": "SPR biosensor analysis of double mutated mTLR9ect-mut on CpG-DNA", "assay_type": "binding, murine", "settings": "200 nM protein, compared to wild-type mTLR9ect", "description": "FIG. 3B is a graph depicting SPR biosensor analysis of wild-type and double mutated mTLR9ect (mTLR9ect-mut, D535→A and Y537→A). Proteins were injected at 200 nM on sensor chips with immobilized CpG- and non-CpG-DNA and the sensorgrams recorded.\nMutation. For mutation of wild-type mTLR9 amino acids D535 and Y537 to two alanines, the primers 5′-[…]-3′ (SEQ ID NO:5) and 5′-[…]-3′ (SEQ ID NO:6) were used to generate mTLR9-mut. A site-specific-mutagenesis kit from Stratagene (Amsterdam, Netherlands) was applied according to the manufacturer's protocol. All PCR fragments were sequenced and found error-free.\nSPR biosensor analysis. Real-time binding of TLR9 or TLR2 was measured by surface plasmon resonance biosensor technology using the BiaCore X system (Uppsala, Sweden). For analysis of TLR9 and TLR2 interaction, biotinylated CpG-DNA and non-CpG-DNA, or biotinylated Pam3CysK4 and PHCK4, respectively, were loaded in running buffer (50 mM MES, 150 mM NaCl, 1 mM MgCl2 at pH 6.5) on SA chips precoated with streptavidin (Biacore AB, Uppsala, Sweden). Non-CpG-DNA or PHCK4 (Wiesmuller K H et al. (1989) Vaccine 7:29-33) served as reference for CpG-DNA and Pam3CysK4 interaction (structure or sequence in Table 1). […] Binding was measured at 25° C. for 750 s (delay time 300 s). […] Sensorgrams were recorded and kinetic data were calculated by the BiaCore Evaluation program (Biacore, version 3.0.1). […]", "data": [{"substance": "5′-TCCATGACGTTCCTGATGCT-3′ (chemistry not given here) [CpG-DNA 1668, synthetic CpG oligodeoxynucleotide, TLR9 ligand]", "values": [{"measurement": "binding of mTLR9ect-mut to CpG-DNA", "result": "bound only weakly"}]}]}
